Numbering of substitutions follows the chain as printed.
How the values were obtained:
[1] = target: T1, AKR1C3 (Homo sapiens, UniProt P42330); test: Spectrophotometric inhibition assay, 1-acenaphthenol oxidation with NAD+; assay type: biochemical; settings: pH 9.0, screening at 400 μM
T1 sequence (P42330 1-323): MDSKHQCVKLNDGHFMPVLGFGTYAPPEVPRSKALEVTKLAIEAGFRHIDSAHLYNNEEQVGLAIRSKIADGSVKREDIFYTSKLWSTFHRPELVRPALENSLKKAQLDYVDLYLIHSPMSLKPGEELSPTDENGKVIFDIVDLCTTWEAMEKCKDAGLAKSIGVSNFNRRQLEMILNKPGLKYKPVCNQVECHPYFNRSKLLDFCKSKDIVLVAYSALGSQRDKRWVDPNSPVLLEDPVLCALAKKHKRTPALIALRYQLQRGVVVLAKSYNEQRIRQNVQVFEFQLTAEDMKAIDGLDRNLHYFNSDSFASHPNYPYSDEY

[2] = system: AKR1C1-3; test: Isoform profile across the AKR1C enzymes; assay type: biochemical, human; settings: 1-acenaphthenol oxidation, NAD+, pH 9.0
[3] = target: T2, AKR1C1 (Homo sapiens, UniProt Q04828); test: Spectrophotometric inhibition assay, 1-acenaphthenol oxidation with NAD+; assay type: biochemical; settings: pH 9.0, screening at 400 μM
T2 sequence (Q04828 1-323): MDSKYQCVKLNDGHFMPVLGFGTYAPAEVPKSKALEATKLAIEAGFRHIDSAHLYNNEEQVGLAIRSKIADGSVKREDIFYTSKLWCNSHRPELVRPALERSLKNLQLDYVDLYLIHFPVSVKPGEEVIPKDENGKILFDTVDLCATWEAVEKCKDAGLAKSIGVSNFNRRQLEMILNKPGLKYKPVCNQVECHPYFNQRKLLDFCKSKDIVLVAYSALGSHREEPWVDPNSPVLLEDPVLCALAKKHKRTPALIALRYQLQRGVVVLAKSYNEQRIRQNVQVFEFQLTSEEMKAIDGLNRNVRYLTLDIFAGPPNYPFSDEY

[4] = target: T3, AKR1C2 (Homo sapiens, UniProt P52895); test: as above; assay type: biochemical; settings: pH 9.0, screening at 400 μM
T3 sequence (P52895 1-323): T2 sequence (Q04828 1-323) with T38V, R47H, L54V, C87S, V151M, R170H, Q172L

| inhibition of AKR1C3 (in words) [1] | inhibition profile / isoform selectivity on AKR1C enzymes (in words) [2] | inhibition of AKR1C1 (in words) [3] | inhibition of AKR1C2 (in words) [4] | Structure (SMILES) |
| --- | --- | --- | --- | --- |
| moderate | – | – | – | O=C(O)c1cc(NC(=O)c2ccccc2F)ccc1O [Compound 1, 5-(2-fluorobenzamido)salicylic acid] |
| – | selective AKR1C3 inhibitor | no observable inhibition | very low inhibition | Cc1cc(C(=O)Nc2ccc(O)c(C(=O)O)c2)oc1C [Compound 3, 5-(4,5-dimethylfuran-2-carboxamido)-salicylic acid] |
| – | selective AKR1C3 inhibitor | – | – | NC(=O)c1ccccc1/N=C/c1cccc(O)c1 [Compound 5, 2-(3-hydroxybenzylideneamino)benzamide] |
| – | low inhibitory effect | – | – | NC(=O)c1ccccc1NC(=O)c1ccncc1 [Compound 7] |
| – | low inhibitory effect | – | – | Cc1cccc(C(=O)Nc2ccccc2C(N)=O)c1 [Compound 8] |
| weak inhibitor | – | weak inhibitor | – | Cc1ccc(NC(=O)c2cccnc2)c(C(=O)O)c1 [Compound 10] |

The remaining lines, values behind:

| Structure (SMILES) | inhibition of AKR1C3 (in words) [1] | inhibition profile / isoform selectivity on AKR1C enzymes (in words) [2] | inhibition of AKR1C1 (in words) [3] | inhibition of AKR1C2 (in words) [4] |
| --- | --- | --- | --- | --- |
| Cc1oc(C(N)=O)cc1COc1ccccc1C(N)=O [Compound 4, 4-((2-carbamoylphenoxy)methyl)-5-methylfuran-2-carboxamide] | moderate inhibitor | partially selective towards AKR1C1 | – | moderate inhibitor |
| O=C(O)c1ccc(CNCc2ccccn2)cc1 [Compound 18] | moderate | – | – | – |
| CC(=O)Nc1ccc(C(C#N)c2ccccc2)cc1 (stereo not shown) [Compound 24, N-(4-(cyano(phenyl)methyl)phenyl)acetamide] | – | – | – | moderate inhibitor |
| O=C(CSc1ncnc2[nH]cnc12)Nc1ccccn1 [Compound 25, 2-((9H-purin-6-yl)thio)-N-(pyridin-2-yl)acetamide] | – | selective AKR1C1 inhibitor | – | – |
| O=C(NCc1cc(=O)[nH]cn1)c1cc2ccccn2n1 [Compound 27, N-((6-oxo-1,6-dihydropyrimidin-4-yl)methyl)pyrazolo[1,5-a]pyridine-2-carboxamide] | – | selective AKR1C3 inhibitors | – | – |
